PubChem BioAssay (NCI)
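96-well plates; 48 h exposure; 5 concentrations. Endpoints by linear interpolation between flanking doses. Not reached: highest tested concentration assigned. Definition used: TGI = concentration required for complete inhibition of growth.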

Legend:
Experiment in all cases: NCI anticancer screen, dose series, 48 h
[1] = system: SR leukemia
[2] = system: HCC-2998 colon
[3] = system: BT-549 breast
[4] = system: UACC-257 melanoma
[5] = system: ACHN renal
[6] = system: MALME-3M melanoma
[7] = system: SK-MEL-2 melanoma
[8] = system: MDA-MB-231 breast
[9] = system: NCI-H522 lung
[10] = system: A498 renal
[11] = system: OVCAR-8 ovarian
[12] = system: HOP-62 NSCLC
[13] = system: NCI/ADR-RES ovarian
[14] = system: SK-MEL-28 melanoma
[15] = system: OVCAR-3 ovarian
[16] = system: NCI-H460 lung
[17] = system: UO-31 renal
[18] = system: TK-10 renal
[19] = system: SN12C renal
[20] = system: OVCAR-5 ovarian
[21] = system: HT29 colon
[22] = system: SF-539 CNS
[23] = system: SK-OV-3 ovarian
[24] = system: EKVX NSCLC
[25] = system: OVCAR-4 ovarian
[26] = system: LOX IMVI melanoma
[27] = system: MDA-N
[28] = system: MDA-MB-435
[29] = system: PC-3 prostate
[30] = system: M14 melanoma
[31] = system: SK-MEL-5 melanoma
[32] = system: NCI-H226 lung
[33] = system: SF-295 CNS
[34] = system: KM12 colon
[35] = system: T-47D breast
[36] = system: HOP-92 NSCLC
[37] = system: MCF7 breast
[38] = system: K-562 leukemia
[39] = system: 786-0 renal
[40] = system: DU-145 prostate
[41] = system: UACC-62 melanoma
[42] = system: U251 CNS
[43] = system: SF-268 CNS
[44] = system: SNB-75 CNS
[45] = system: HS 578T breast
[46] = system: RPMI-8226 leukemia
[47] = system: COLO 205 colon
[48] = system: CCRF-CEM leukemia
[49] = system: CAKI-1 renal
[50] = system: A549 NSCLC
[51] = system: HCT-15 colon
[52] = system: RXF 393 renal
[53] = system: MOLT-4 leukemia
[54] = system: HCT-116 colon
[55] = system: SNB-19 CNS
[56] = system: SW-620 colon
[57] = system: NCI-H23 lung
[58] = system: HL-60(TB) leukemia
[59] = system: IGROV1 ovarian

NCCCCCCn1c(-c2ccc(Br)cc2)csc1=Nc1ccccc1
TGI [1]: 11.3 µM
TGI [2]: 12.8 µM
TGI [3]: 27.4 µM
TGI [4]: 29.6 µM
TGI [5]: 27.7 µM
TGI [6]: 25.6 µM
TGI [7]: 33.4 µM
TGI [8]: 30.3 µM
TGI [9]: 24 µM
TGI [10]: 33.6 µM
TGI [11]: 26.2 µM
TGI [12]: 32.4 µM
TGI [13]: 28.8 µM
TGI [14]: 27.2 µM
TGI [15]: 23.7 µM
TGI [16]: 27.1 µM
TGI [17]: 22.1 µM
TGI [18]: 26.7 µM
TGI [19]: 26.5 µM
TGI [20]: 24.6 µM
TGI [21]: 19.9 µM
TGI [22]: 30.6 µM
TGI [23]: 31.1 µM
TGI [24]: 26.7 µM
TGI [25]: 25.9 µM
TGI [26]: 13.1 µM
TGI [27]: 19.7 µM
TGI [28]: 22.6 µM
TGI [29]: 18.3 µM
TGI [30]: 3.17 µM
TGI [31]: 21.7 µM
TGI [32]: 39.5 µM
TGI [33]: 29.5 µM
TGI [34]: 19.7 µM
TGI [35]: 18.3 µM
TGI [36]: 32.4 µM
TGI [37]: 17.4 µM
TGI [38]: 4.84 µM
TGI [39]: 21.9 µM
TGI [40]: 26.3 µM
TGI [41]: 32.1 µM
TGI [42]: 20.9 µM
TGI [43]: 31.3 µM
TGI [44]: 24.2 µM
TGI [45]: 35.6 µM
TGI [46]: 16.2 µM
TGI [47]: 3.18 µM
TGI [48]: 21.6 µM
TGI [49]: 28.3 µM
TGI [50]: 25 µM
TGI [51]: 22.1 µM
TGI [52]: 26.2 µM
TGI [53]: 14.8 µM
TGI [54]: 15.1 µM
TGI [55]: 29 µM
TGI [56]: 17.6 µM
TGI [57]: 29.8 µM

COc1ccc2c(c1)[C@@H]1c3cc(OC)c(OC)cc3CCN1CCC2
TGI [1]: > 100 µM
TGI [2]: > 100 µM
TGI [3]: > 100 µM
TGI [4]: > 100 µM
TGI [5]: > 100 µM
TGI [6]: > 100 µM
TGI [7]: > 100 µM
TGI [8]: > 100 µM
TGI [9]: > 100 µM
TGI [10]: > 100 µM
TGI [11]: > 100 µM
TGI [12]: > 100 µM
TGI [13]: > 100 µM
TGI [14]: > 100 µM
TGI [15]: > 100 µM
TGI [16]: > 100 µM
TGI [17]: > 100 µM
TGI [18]: > 100 µM
TGI [19]: > 100 µM
TGI [20]: > 100 µM
TGI [21]: > 100 µM
TGI [22]: > 100 µM
TGI [24]: > 100 µM
TGI [25]: > 100 µM
TGI [26]: > 100 µM
TGI [27]: > 100 µM
TGI [28]: > 100 µM
TGI [29]: > 100 µM
TGI [30]: > 100 µM
TGI [31]: > 100 µM
TGI [33]: > 100 µM
TGI [34]: > 100 µM
TGI [35]: > 100 µM
TGI [36]: > 100 µM
TGI [37]: > 100 µM
TGI [38]: > 100 µM
TGI [39]: > 100 µM
TGI [40]: > 100 µM
TGI [41]: > 100 µM
TGI [58]: > 100 µM
TGI [42]: > 100 µM
TGI [43]: > 100 µM
TGI [44]: > 100 µM
TGI [45]: > 100 µM
TGI [46]: > 100 µM
TGI [47]: > 100 µM
TGI [48]: > 100 µM
TGI [49]: > 100 µM
TGI [50]: > 100 µM
TGI [51]: > 100 µM
TGI [52]: > 100 µM
TGI [53]: > 100 µM
TGI [59]: > 100 µM
TGI [54]: > 100 µM
TGI [55]: > 100 µM
TGI [56]: > 100 µM
TGI [57]: > 100 µM

COC(=O)[C@@H]1C[C@@]23CCCN4CC[C@@]5(c6cccc(OC)c6N(C=O)[C@]15CC2)[C@@H]43
TGI [1]: > 100 µM
TGI [2]: > 100 µM
TGI [3]: > 100 µM
TGI [4]: > 100 µM
TGI [5]: > 100 µM
TGI [6]: > 100 µM
TGI [7]: > 100 µM
TGI [8]: > 100 µM
TGI [9]: > 100 µM
TGI [10]: > 100 µM
TGI [11]: > 100 µM
TGI [12]: > 100 µM
TGI [13]: > 100 µM
TGI [14]: > 100 µM
TGI [15]: > 100 µM
TGI [16]: > 100 µM
TGI [17]: > 100 µM
TGI [18]: > 100 µM
TGI [19]: > 100 µM
TGI [20]: > 100 µM
TGI [21]: > 100 µM
TGI [22]: > 100 µM
TGI [23]: > 100 µM
TGI [24]: > 100 µM
TGI [25]: > 100 µM
TGI [26]: > 100 µM
TGI [27]: > 100 µM
TGI [28]: > 100 µM
TGI [29]: > 100 µM
TGI [30]: > 100 µM
TGI [31]: > 100 µM
TGI [32]: > 100 µM
TGI [33]: > 100 µM
TGI [34]: > 100 µM
TGI [35]: > 100 µM
TGI [36]: > 100 µM
TGI [37]: > 100 µM
TGI [39]: > 100 µM
TGI [40]: > 100 µM
TGI [41]: > 100 µM
TGI [58]: > 100 µM
TGI [42]: > 100 µM
TGI [43]: > 100 µM
TGI [44]: > 100 µM
TGI [45]: > 100 µM
TGI [46]: > 100 µM
TGI [47]: > 100 µM
TGI [48]: > 100 µM
TGI [49]: > 100 µM
TGI [50]: > 100 µM
TGI [51]: > 100 µM
TGI [52]: > 100 µM
TGI [53]: > 100 µM
TGI [59]: > 100 µM
TGI [54]: > 100 µM
TGI [55]: > 100 µM
TGI [56]: > 100 µM
TGI [57]: > 100 µM
